Data published in patent USRE37781E1, “Substituted cyclic carbonyls and derivatives thereof useful as retroviral protease inhibitors” (DuPont Pharmaceuticals Company, priority 1991, dated 2002).
Converted amounts (≈) assume the structure as drawn. Read-outs that look alike come from different tables or passages of the source. One block for each compound: values may come before it.

Tested on: HIV-1 (RF) in MT-2 cells
Assay: microbe, parasite or virus in culture
Format: cell-based
Protocol: DNA Plasmids and in vitro RNA transcripts:
Plasmid pDAB 72 containing both gag and pol sequences of BH10 (bp 113-1816) cloned into PTZ 19R was prepared according to Erickson-Viitanen et al. AIDS Research and Human Retroviruses 1989, 5, 577. The plasmid was linearized with Bam HI prior to the generation of in vitro RNA transcripts using the Riboprobe Gemini system II kit (Promega) with T7 RNA polymerase. Synthesized RNA was purified by treatment with RNase free DNAse (Promega), phenol-chloroform extraction, and ethanol precipitation. RNA transcripts were dissolved in water, and stored at −70° C. The concentration of RNA was determined from the A260.
Biotinylated capture probes were purified by HPLC after synthesis on an Applied Biosystems (Foster City, Calif.) DNA synthesizer by addition of biotin to the 5′ terminal end of the oligonucleotide, using the biotin-phosphoramidite reagent of Cocuzza, Tet. Lett. 1989, 30, 6287. The gag biotinylated capture probe (5-biotin-[…] 3′) was complementary to nucleotides 889-912 of HXB2 and the pol biotinylated capture probe (5′-biotin-[…] 3′) was complementary to nucleotides 2374-2395 of HXB2. Alkaline phosphatase conjugated oligonucleotides used as reporter probes were prepared by Syngene (San Diego, Calif.). The pol reporter probe (5′ […] 3′) was complementary to nucleotides 2403-2425 of HXB2. The gag reporter probe (5′ […] 3′) was complementary to nucleotides 950-973 of HXB2. All nucleotide positions are those of the GenBank Genetic Sequence Data Bank as accessed through the Genetics Computer Group Sequence Analysis Software Package (Devereau Nucleic Acids Research 1984, 12, 387). The reporter probes were prepared as 0.5μM stocks in 2× SSC (0.3M NaCl, 0.03M sodium citrate), 0.05M Tris pH 8.8, 1 mg/mL BSA. The biotinylated capture probes were prepared as 10 μM stocks in water.
Streptavidin coated plates:
Nunc-immunomodule microtiter plate strips were coated by addition of 200 μL of streptavidin (30 ug/mL, Scripps, La Jolla, Calif.) in freshly prepared 10 mM sodium carbonate (pH 9.6). Plates were incubated overnight at 4° C. Streptavidin solution was aspirated from the wells and a blocking buffer composed of phosphate buffered saline (PBS), 20 mg/mL bovine serum albumin (crystalline, nuclease and protease free, Calbiochem) and 100 mg/mL lactose (Sigma) was added to the plates for 3 hrs at room temperature. Blocking buffer was removed from the wells, which were allowed to dry overnight at room temperature and subsequently stored at 4° C. in zip lock bags with desiccant. For the majority of the compound evaluation experiments, streptavidin coated plates were obtained from Du Pont Biotechnology Systems (Boston, Mass.).
MT-2, CEM, and H9 cells were maintained in RPMI 1640 supplemented with 5% fetal calf serum (FCS), 2 mM L-glutamine and 50 μg/mL gentamycin, all from Gibco. Laboratory strains of HIV-1 (RF, MN and IIIB) were propagated in H9 cells in the same medium. Virus stocks were prepared approximately 1 month after acute infection of H9 cells by clarification of the tissue culture medium and storage of aliquots at −70° C. […] Each aliquot of virus stock used for infection was thawed only once. In some cases, infected H9 cells were shifted to Dulbecco's modified Eagle's medium 3-10 days before collection of virus in order to generate virus stocks in medium with low biotin content. Clinical isolates of HIV that had been passaged once in MT-2 cells were used to infect fresh MT-2 cells in RPMI medium. Three days after infection, cells were pelleted, resuspended and culture continued in Dulbecco's modified Eagle's medium as above. Virus stocks of clinical isolates were prepaid 10-15 days after infection when cytopathic effects were apparent in the culture.

[1] = Human immunodeficiency virus 1, MT2, Table 1e, read-out: IC90
[2] = Human immunodeficiency virus 1, MT2, 24 h, Table 1d, upper part, read-out: IC90
[3] = Human immunodeficiency virus 1, MT2, HIV RNA assay, HIV-1 infected MT-2 cells, class symbols, read-out: IC90

IC90 [1]: > 100 µg/mL
Compound: O=C1N(Cc2ccc3ccccc3c2)C(C(F)Cc2ccccc2)[C@@H](O)[C@@H](Cc2ccccc2)N1Cc1ccc2ccccc2c1 (stereo partly drawn) [Example 7X]

IC90 [2]: 10 to 100 µg/mL (≈ 22.4 to 224 µM)
Compound: O=C1N(CC2CC2)C(Cc2ccccc2)C2OCOC2C(Cc2ccccc2)N1CC1CC1 (stereo not drawn) [Example 7H]

Compound: O=C1N(Cc2cccc(C(F)(F)F)c2)C(Cc2ccccc2)C(O)C(O)C(Cc2ccccc2)N1Cc1cccc(C(F)(F)F)c1 (stereo not drawn) [Example 6Y]
IC90 [3]: > 100 µg/mL

IC90 [2]: 10 to 100 µg/mL (≈ 16.2 to 162 µM)
Compound: O=C1N(Cc2ccc3ccccc3c2)C(Cc2ccccc2)C2OCOC2C(Cc2ccccc2)N1Cc1ccc2ccccc2c1 (stereo not drawn) [Example 7Q]

IC90 (Table 1e): +++ (+++=<10 μg/mL)
Compound: NC(=NO)c1cccc(CN2C(=O)N(Cc3cccc(C(N)=NO)c3)C(Cc3ccccc3)C(O)C2CCc2ccccc2)c1 (stereo not drawn) [Example 8AF]

Compound: O=C1N(Cc2ccc(C(F)(F)F)cc2)C(Cc2ccccc2)C(O)C(O)C(Cc2ccccc2)N1Cc1ccc(C(F)(F)F)cc1 (stereo not drawn) [Example 6W]
IC90 [3]: > 100 µg/mL

IC90 [1]: > 50 µg/mL
Compound: O=C1N(Cc2ccc3ccccc3c2)C(CCc2ccccc2)[C@@H](O)[C@@H](Cc2ccccc2)N1Cc1ccc2ccccc2c1 (stereo partly drawn) [Example 8G]

IC90 (Table 1e): + (+=>100 μg/mL)
Compound: NC(=NO)c1cccc(CN2C(=O)N(Cc3cccc(C(N)=NO)c3)C(Cc3ccccc3)C(O)C2CCc2ccccc2)c1 (stereo not drawn) [Example 8AO]

IC90 [1]: > 50 µg/mL
Compound: O=C1N(Cc2ccc3ccccc3c2)C(Cc2ccccc2)C(O)C(C(Br)Cc2ccccc2)N1Cc1ccc2ccccc2c1 (stereo not drawn) [Example 8R]

Compound: CN(C)CCNC(=O)c1cccc(CN2C(=O)N(Cc3cccc(C(=O)NCCN(C)C)c3)C(Cc3ccccc3)C(O)C(O)C2Cc2ccccc2)c1 (stereo not drawn) [15XW]
IC90 (Table 2d, HIV RNA assay): ++ (++=10 to 100 μg/mL)

IC90 [2]: 10 to 100 µg/mL (≈ 21.5 to 215 µM)
Compound: C=CCN1C(=O)N(CC=C)C(Cc2ccccc2)C2OCSCOC2C1Cc1ccccc1 (stereo not drawn) [Example 7B]

IC90 (Human immunodeficiency virus 1, MT2, 48 h, Table 2d, HIV RNA assay, read-out: IC90): < 10 µg/mL
Compound: CC(=NO)c1cccc(CN2C(=O)N(Cc3cccc(C(C)=NO)c3)C(Cc3ccccc3)C(O)C(O)C2Cc2ccccc2)c1 (stereo not drawn) [Example 15XS]

IC90 [1]: > 100 µg/mL
Compound: COC(=O)c1cccc(CN2C(=O)N(Cc3cccc(C(=O)OC)c3)C(Cc3ccccc3)C(O)C2CCc2ccccc2)c1 (stereo not drawn) [Example 8AQ]

IC90 (Table 2d, HIV RNA assay): +++ (+++=<10 μg/mL)
Compound: O=C1N(Cc2cccc(I)c2)C(Cc2ccccc2)C(O)C(O)C(Cc2ccccc2)N1Cc1ccc2[nH]nnc2c1 (stereo not drawn) [15DT]

IC90 (Human immunodeficiency virus 1, MT2, 48 h, Table 2d, class symbols, read-out: IC90): < 10 µg/mL
Compound: CNC(=O)OCCCCCCN1C(=O)N(CCCCCCOC(C)=O)C(Cc2ccccc2)C(O)C(O)C1Cc1ccccc1 (stereo not drawn) [Example 12X]

IC90 (Human immunodeficiency virus 1, MT2, virus inoculum standardisation, HIV-1 (RF), MT-2 cells, read-out: IC50 value (concentration of compound required to reduce the HIV RNA level by 90%)): 0.2 µg/mL (≈ 0.947 µM)
Compound: Nc1ccn([C@H]2CC[C@@H](CO)O2)c(=O)n1 [dideoxycytidine, reference compound]

IC90 [1]: 10 to 100 µg/mL (≈ 16.5 to 165 µM)
Compound: COC(=O)c1cccc(CN2C(=O)N(Cc3cccc(C(=O)OC)c3)[C@H](Cc3ccccc3)[C@H](O)[C@H]2CCc2ccccc2)c1 [Example 8Y]

Compound: O=C1N(Cc2ccc3ccccc3n2)C(Cc2ccccc2)C(O)C(O)C(Cc2ccccc2)N1Cc1ccc2ccccc2n1 (stereo not drawn) [Example 6K]
IC90 [3]: > 100 µg/mL
